In patent publication US11133139B2, “Use of 1-chloro-2,3,3,3-tetrafluoropropene for isolating or extinguishing electric arcs” (Arkema France, priority 2018, dated 2021):

Key:
[1] = Dielectric strength measurement in a homogeneous field, relative to SF6; format: physicochemical
Method: The results are as follows, expressed in a relative manner as percentage of the dielectric strength of the reference gas SF6: • HCFO-1224yd(Z): 178%.
Its dielectric strength values (with an interelectrode distance of 12 mm) is then as follows, still with respect to SF6: • HCFO-1224yd(Z) at 17° C.: 159%.

[2] = Toxicity (statement, no method)
[3] = Flammability, thermal stability, saturated vapor pressure / condensation; format: physicochemical
[4] = prior art statement; cited from earlier work
[5] = prior art statement; cited from earlier work; remark: listed apart in the source

O=C=O [CO2, carbon dioxide, reference compound]
dielectric strength as % of that of SF6 ([1]; −15° C., 1.14 bar): 51%

FC(=CCl)C(F)(F)F [HCFO-1224yd(Z), 1-chloro-2,3,3,3-tetrafluoropropene]
dielectric strength as percentage of the dielectric strength of the reference gas SF6 ([1]; 20° C., 1.3 bar, homogeneous field, interelectrode distance 12 mm): 178%
dielectric strength with respect to SF6 ([1]; pure state, 17° C., 1.14 bar, interelectrode distance 12 mm): 159%
toxicity [2]: very low level of toxicity
flammability [3]: nonflammable
thermal stability [3]: thermally stable
minimum temperature of use in the pure state without condensation ([3]; pressure of 1.14 bar): 17 °C
saturated pressure ([3]; −15° C.): 0.29 bar

FS(F)(F)(F)(F)F [SF6, sulfur hexafluoride]
toxicity (background) [4]: nontoxic to man and animals
flammability (background) [5]: nonflammable

FC(F)(F)I [trifluoroiodomethane]
toxicity (background) [4]: category-3 carcinogenic, mutagenic and reprotoxic substances
